pIC50: −log10 of the molar value. Non-standard residues stand in square brackets, D forms with d. Residues, ends and D or L forms follow the SMILES beside them. Groups on a side chain read outwards from the residue. *: point of attachment. Phe(4-Br) = N[C@@H](Cc1ccc(Br)cc1)C(=O)O; Phe(4-Cl) = N[C@@H](Cc1ccc(Cl)cc1)C(=O)O; Phe(4-F) = N[C@@H](Cc1ccc(F)cc1)C(=O)O; 2Nal = N[C@@H](Cc1ccc2ccccc2c1)C(=O)O; NEt2 = CCN(CC)*
Columns and labels:
MDA-MB-231 = assay: Antitumor activity against human MDA-MB-231 cells; format: functional, cell-based
[1] = Inhibition of IMPDH (unknown origin); set-up: species or system Homo sapiens
Cathepsin B = Cathepsin B (Homo sapiens, UniProt P07858); assay: Inhibition of cathepsin B (unknown origin)
[2] = molecular target: T1, Tyrosine-protein phosphatase non-receptor type 11 (Homo sapiens) (UniProt Q06124); assay: Inhibition of SHP2 (unknown origin) at 25 uM
T1 sequence (whole entry): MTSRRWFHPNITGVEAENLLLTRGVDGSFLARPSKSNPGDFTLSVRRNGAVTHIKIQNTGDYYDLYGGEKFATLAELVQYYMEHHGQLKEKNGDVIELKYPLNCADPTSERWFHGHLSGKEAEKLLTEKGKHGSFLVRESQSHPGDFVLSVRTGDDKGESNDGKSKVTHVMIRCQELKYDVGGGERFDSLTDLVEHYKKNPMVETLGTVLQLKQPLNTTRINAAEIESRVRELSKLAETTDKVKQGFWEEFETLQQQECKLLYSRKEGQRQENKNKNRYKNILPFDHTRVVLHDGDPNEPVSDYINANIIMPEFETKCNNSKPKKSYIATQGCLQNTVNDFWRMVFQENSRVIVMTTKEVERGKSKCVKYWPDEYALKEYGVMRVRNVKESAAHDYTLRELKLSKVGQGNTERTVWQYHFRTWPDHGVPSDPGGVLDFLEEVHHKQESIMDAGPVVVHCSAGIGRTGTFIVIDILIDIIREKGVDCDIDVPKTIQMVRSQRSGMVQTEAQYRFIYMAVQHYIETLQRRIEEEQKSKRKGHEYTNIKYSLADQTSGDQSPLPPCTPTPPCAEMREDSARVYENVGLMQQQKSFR

Monoglyceride lipase = molecular target: T2, Monoglyceride lipase (Homo sapiens, UniProt Q99685); assay: Inhibition of MAGL (unknown origin)
T2 sequence (Q99685 whole entry): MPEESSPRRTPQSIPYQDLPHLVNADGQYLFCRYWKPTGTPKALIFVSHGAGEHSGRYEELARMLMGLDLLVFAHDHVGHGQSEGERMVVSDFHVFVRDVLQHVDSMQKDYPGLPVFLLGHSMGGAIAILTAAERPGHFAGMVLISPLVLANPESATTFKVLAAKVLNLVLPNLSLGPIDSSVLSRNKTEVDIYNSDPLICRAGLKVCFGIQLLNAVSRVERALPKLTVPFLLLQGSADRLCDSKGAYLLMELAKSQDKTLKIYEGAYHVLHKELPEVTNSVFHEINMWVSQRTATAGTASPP

HeLa = assay: Antitumor activity against human HeLa cells; format: functional, cell-based
[3] = molecular target: T1, Tyrosine-protein phosphatase non-receptor type 11 (Homo sapiens); assay: Inhibition of SHP2 (unknown origin) at 20 uM
[4] = molecular target: T1, Tyrosine-protein phosphatase non-receptor type 11 (Homo sapiens); assay: Inhibition of SHP2 (unknown origin) at 10 uM
Acetylcholinesterase = Acetylcholinesterase (Homo sapiens, UniProt P22303); assay: Inhibition of AchE (unknown origin)
Acetylcholinesterase, sequence (P22303 whole entry): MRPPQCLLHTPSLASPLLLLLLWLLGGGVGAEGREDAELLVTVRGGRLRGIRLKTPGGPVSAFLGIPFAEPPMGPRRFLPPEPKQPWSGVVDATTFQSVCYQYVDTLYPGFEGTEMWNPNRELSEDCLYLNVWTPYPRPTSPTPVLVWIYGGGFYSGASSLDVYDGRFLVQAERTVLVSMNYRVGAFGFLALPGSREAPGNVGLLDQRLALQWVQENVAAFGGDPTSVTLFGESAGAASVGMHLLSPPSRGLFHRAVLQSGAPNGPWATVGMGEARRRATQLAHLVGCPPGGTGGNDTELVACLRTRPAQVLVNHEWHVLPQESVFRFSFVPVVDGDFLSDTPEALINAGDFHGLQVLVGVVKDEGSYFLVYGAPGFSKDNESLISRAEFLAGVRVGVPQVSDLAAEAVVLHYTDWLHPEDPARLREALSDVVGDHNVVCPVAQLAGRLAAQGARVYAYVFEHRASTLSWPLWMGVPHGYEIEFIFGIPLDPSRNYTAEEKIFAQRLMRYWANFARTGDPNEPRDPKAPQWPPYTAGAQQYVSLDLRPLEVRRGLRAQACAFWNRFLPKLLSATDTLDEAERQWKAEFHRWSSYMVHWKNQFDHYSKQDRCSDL

[5] = molecular target: T1, Tyrosine-protein phosphatase non-receptor type 11 (Homo sapiens); assay: Inhibition of SHP2 (unknown origin) at 100 uM
[6] = molecular target: T3, Tyrosine-protein phosphatase non-receptor type 11 (Homo sapiens, UniProt Q06124); assay: Inhibition of SHP2 (unknown origin)
T3 sequence (Q06124 whole entry): T1 sequence (whole entry)

[7] = molecular target: T1, Tyrosine-protein phosphatase non-receptor type 11 (Homo sapiens); assay: Inhibition of SHP2 (unknown origin) at 5 uM
[8] = molecular target: T1, Tyrosine-protein phosphatase non-receptor type 11 (Homo sapiens); assay: Inhibition of SHP2 (unknown origin) at 50 uM
Proteasome = assay: Inhibition of proteasome (unknown origin); format: subcellular, Homo sapiens

CCN(CC)C(=O)[C@H](Cc1ccccc1)NC(=O)[C@H](CC(C)C)NC(=O)[C@@H](NC(=O)[C@@H](N)COC(=O)[C@H](CC(C)C)NC(C)=O)C(C)C (H-S([Leu-Ac])VLF-NEt2)
IC50 (MDA-MB-231): > 50 µg/mL
IC50 [1]: > 100 µg/mL
pIC50 (Cathepsin B): < 3.83
inhibition [2]: 46%
pIC50 (Monoglyceride lipase): < 3.83
IC50 (HeLa): > 50 µg/mL
inhibition [3]: 40%
inhibition [4]: 31%
pIC50 (Acetylcholinesterase): < 3.83
inhibition [5]: 94%
pIC50 [6]: 4.43
inhibition [7]: 12%
inhibition [8]: 83%
IC50 (Proteasome): > 100 µg/mL

CCN(CC)C(=O)[C@H](Cc1ccc(OC)cc1)NC(=O)[C@H](CC(C)C)NC(=O)[C@@H](NC(=O)[C@@H](N)COC(=O)[C@H](CC(C)C)NC(C)=O)C(C)C (H-S([Leu-Ac])VLY(Me)-NEt2)
IC50 (MDA-MB-231): > 50 µg/mL
IC50 [1]: > 100 µg/mL
pIC50 (Cathepsin B): < 3.85
pIC50 (Monoglyceride lipase): < 3.85
IC50 (HeLa): > 50 µg/mL
inhibition [3]: 34%
pIC50 (Acetylcholinesterase): < 3.85
inhibition [5]: 92%
inhibition [8]: 52%
IC50 (Proteasome): > 100 µg/mL

CCN(CC)C(=O)[C@H](Cc1ccc2ccccc2c1)NC(=O)[C@H](CC(C)C)NC(=O)[C@@H](NC(=O)[C@@H](N)COC(=O)[C@H](CC(C)C)NC(C)=O)C(C)C (H-S([Leu-Ac])VL[2Nal]-NEt2)
IC50 (MDA-MB-231): > 50 µg/mL
IC50 [1]: > 100 µg/mL
pIC50 (Cathepsin B): < 3.86
pIC50 (Monoglyceride lipase): < 3.86
IC50 (HeLa): > 50 µg/mL
inhibition [3]: 27%
pIC50 (Acetylcholinesterase): < 3.86
inhibition [5]: 93%
inhibition [8]: 46%
IC50 (Proteasome): > 100 µg/mL

CCN(CC)C(=O)[C@H](Cc1ccc(Br)cc1)NC(=O)[C@H](CC(C)C)NC(=O)[C@@H](NC(=O)[C@@H](N)COC(=O)[C@H](CC(C)C)NC(C)=O)C(C)C (H-S([Leu-Ac])VL[Phe(4-Br)]-NEt2)
IC50 (MDA-MB-231): > 50 µg/mL
IC50 [1]: > 100 µg/mL
pIC50 (Cathepsin B): < 3.88
inhibition [2]: 49%
pIC50 (Monoglyceride lipase): < 3.88
IC50 (HeLa): > 50 µg/mL
inhibition [3]: 46%
inhibition [4]: 26%
pIC50 (Acetylcholinesterase): < 3.88
inhibition [5]: 96%
pIC50 [6]: 4.48
inhibition [7]: 21%
inhibition [8]: 78%
IC50 (Proteasome): > 100 µg/mL

CCN(CC)C(=O)[C@H](Cc1ccc(Cl)cc1)NC(=O)[C@H](CC(C)C)NC(=O)[C@@H](NC(=O)[C@@H](N)COC(=O)[C@H](CC(C)C)NC(C)=O)C(C)C (H-S([Leu-Ac])VL[Phe(4-Cl)]-NEt2)
IC50 (MDA-MB-231): > 50 µg/mL
IC50 [1]: > 100 µg/mL
pIC50 (Cathepsin B): < 3.85
pIC50 (Monoglyceride lipase): < 3.85
IC50 (HeLa): > 50 µg/mL
inhibition [3]: 21%
pIC50 (Acetylcholinesterase): < 3.85
inhibition [5]: 89%
inhibition [8]: 49%
IC50 (Proteasome): > 100 µg/mL

CCN(CC)C(=O)[C@H](Cc1ccc(F)cc1)NC(=O)[C@H](CC(C)C)NC(=O)[C@@H](NC(=O)[C@@H](N)COC(=O)[C@H](CC(C)C)NC(C)=O)C(C)C (H-S([Leu-Ac])VL[Phe(4-F)]-NEt2)
IC50 (MDA-MB-231): > 50 µg/mL
IC50 [1]: > 100 µg/mL
pIC50 (Cathepsin B): < 3.84
pIC50 (Monoglyceride lipase): < 3.84
IC50 (HeLa): > 50 µg/mL
inhibition [3]: 32%
pIC50 (Acetylcholinesterase): < 3.84
inhibition [5]: 97%
inhibition [8]: 55%
IC50 (Proteasome): > 100 µg/mL

CCN(CC)C(=O)[C@H](Cc1ccccc1)NC(=O)[C@H](CC(C)C)NC(=O)[C@@H](NC(=O)[C@@H](N)COC(=O)[C@@H]1CCCN1C(C)=O)C(C)C (H-S([Pro-Ac])VLF-NEt2)
IC50 (MDA-MB-231): > 50 µg/mL
IC50 [1]: > 100 µg/mL
pIC50 (Cathepsin B): < 3.82
pIC50 (Monoglyceride lipase): < 3.82
IC50 (HeLa): > 50 µg/mL
inhibition [3]: 29%
pIC50 (Acetylcholinesterase): < 3.82
inhibition [5]: 95%
inhibition [8]: 54%
IC50 (Proteasome): > 100 µg/mL

CCN(CC)C(=O)[C@H](Cc1ccc(OC)cc1)NC(=O)[C@H](CC(C)C)NC(=O)[C@@H](NC(=O)[C@@H](N)COC(=O)[C@@H]1CCCN1C(C)=O)C(C)C (H-S([Pro-Ac])VLY(Me)-NEt2)
IC50 (MDA-MB-231): > 50 µg/mL
IC50 [1]: > 100 µg/mL
pIC50 (Cathepsin B): < 3.84
pIC50 (Monoglyceride lipase): < 3.84
IC50 (HeLa): > 50 µg/mL
inhibition [3]: 35%
pIC50 (Acetylcholinesterase): < 3.84
inhibition [5]: 87%
inhibition [8]: 53%
IC50 (Proteasome): > 100 µg/mL

CCN(CC)C(=O)[C@H](Cc1ccc2ccccc2c1)NC(=O)[C@H](CC(C)C)NC(=O)[C@@H](NC(=O)[C@@H](N)COC(=O)[C@@H]1CCCN1C(C)=O)C(C)C (H-S([Pro-Ac])VL[2Nal]-NEt2)
IC50 (MDA-MB-231): > 50 µg/mL
IC50 [1]: > 100 µg/mL
pIC50 (Cathepsin B): < 3.85
inhibition [2]: 61%
pIC50 (Monoglyceride lipase): < 3.85
IC50 (HeLa): > 50 µg/mL
inhibition [3]: 58%
inhibition [4]: 47%
pIC50 (Acetylcholinesterase): < 3.85
inhibition [5]: 94%
pIC50 [6]: 4.90
inhibition [7]: 33%
inhibition [8]: 76%
IC50 (Proteasome): > 100 µg/mL

CCN(CC)C(=O)[C@H](Cc1ccc(Br)cc1)NC(=O)[C@H](CC(C)C)NC(=O)[C@@H](NC(=O)[C@@H](N)COC(=O)[C@@H]1CCCN1C(C)=O)C(C)C (H-S([Pro-Ac])VL[Phe(4-Br)]-NEt2)
IC50 (MDA-MB-231): > 50 µg/mL
IC50 [1]: > 100 µg/mL
pIC50 (Cathepsin B): < 3.87
pIC50 (Monoglyceride lipase): < 3.87
IC50 (HeLa): > 50 µg/mL
inhibition [3]: 20%
pIC50 (Acetylcholinesterase): < 3.87
inhibition [5]: 86%
inhibition [8]: 51%
IC50 (Proteasome): > 100 µg/mL

CCN(CC)C(=O)[C@H](Cc1ccc(Cl)cc1)NC(=O)[C@H](CC(C)C)NC(=O)[C@@H](NC(=O)[C@@H](N)COC(=O)[C@@H]1CCCN1C(C)=O)C(C)C (H-S([Pro-Ac])VL[Phe(4-Cl)]-NEt2)
IC50 (MDA-MB-231): > 50 µg/mL
IC50 [1]: > 100 µg/mL
pIC50 (Cathepsin B): < 3.84
pIC50 (Monoglyceride lipase): < 3.84
IC50 (HeLa): > 50 µg/mL
inhibition [3]: 37%
pIC50 (Acetylcholinesterase): < 3.84
inhibition [5]: 88%
inhibition [8]: 46%
IC50 (Proteasome): > 100 µg/mL

CCN(CC)C(=O)[C@H](Cc1ccc(F)cc1)NC(=O)[C@H](CC(C)C)NC(=O)[C@@H](NC(=O)[C@@H](N)COC(=O)[C@@H]1CCCN1C(C)=O)C(C)C (H-S([Pro-Ac])VL[Phe(4-F)]-NEt2)
IC50 (MDA-MB-231): > 50 µg/mL
IC50 [1]: > 100 µg/mL
pIC50 (Cathepsin B): < 3.83
inhibition [2]: 47%
pIC50 (Monoglyceride lipase): < 3.83
IC50 (HeLa): > 50 µg/mL
inhibition [3]: 44%
inhibition [4]: 23%
pIC50 (Acetylcholinesterase): < 3.83
inhibition [5]: 95%
pIC50 [6]: 4.50
inhibition [7]: 18%
inhibition [8]: 81%
IC50 (Proteasome): > 100 µg/mL

— ChEMBL document CHEMBL3400108, “Synthesis and biological evaluation of open-chain analogs of cyclic peptides as inhibitors of cellular Shp2 activity” (Bioorg Med Chem, 2015)
